The test system of data set [1] is Normal human peripheral blood mononuclear cells (PBMC). Nature of the data set: Cell viability, trypan blue exclusion, normal PBMC. The settings on record: 72 hours incubation. Type of data set: cell-based. An excerpt: (§1) Following cancer cell lines were used: chronic myeloid leukemia cell lines K562, KU812; acute myeloid leukemia cell lines HL60, U937; T-lymphoblastic leukemia cell line Molt-4; prostate cancer cell line PC-3; breast cancer cell line MCF-7; pancreatic cancer cell line MIA PaCa-2. These cancer cell lines were maintained in tissue culture in standard growth medium containing 10% heat-inactivated fetal bovine serum (FBS). Normal human peripheral blood mononuclear cells (PBMC) were separated from whole blood by Ficoll/Hypaque density gradient centrifugation. Peripheral blood samples were collected from normal donors with due approval from the Human Ethics Committee of Indian Institute of Chemical Biology, Kolkata, India, and all experiments with human blood were conducted under an approved institutional Human Ethics committee protocol. Informed consent was provided according to the Declaration of Helsinki. Cancer cell lines and PBMC (5×10^3) in triplicate were incubated in 0.2 mL of standard growth medium containing 10% FBS with varying concentrations of test compounds of the present invention. After 72 hours of incubation, cells were collected by centrifugation (at 1000 g for 5 minutes) and cell-viability was determined by the trypan blue exclusion assay. At least 200 cells were examined in each sample. Because of monolayer culture, treated and untreated PC-3, MCF-7 and MIA PaCa-2 cells were detached from the wells by treatment with Cell Dissociation Solution (Sigma Chemical, St. Louis, Mo.) before counting. Data are represented as IC50 (minimum concentration required to inhibit the viability by 50%) in Table 5.

Data set [2] has as its system acute myeloid leukemia cell line HL60. Briefly: Cell viability, trypan blue exclusion, HL-60. The settings on record: Homo sapiens. It is filed as cell-based.
Description: as §1

The test system of data set [3] is acute myeloid leukemia cell line U937. Briefly: Cell viability, trypan blue exclusion, U937. It is filed as cell-based. The settings on record: Homo sapiens, U-937, 72 hours incubation.
Description: as §1

Data set [4] relates to T-lymphoblastic leukemia cell line Molt-4. Briefly: Cell viability, trypan blue exclusion, Molt-4. Type of data set: cell-based, human. The settings on record: 72 hours incubation.
Description: as §1

The test system of data set [5] is breast cancer cell line MCF-7. Briefly: Cell viability, trypan blue exclusion, MCF-7. Type of data set: cell-based, human. The settings on record: 72 hours incubation.
Description: as §1

Data set [6] deals with pancreatic cancer cell line MIA PaCa-2. Briefly: Cell viability, trypan blue exclusion, MIA PaCa-2. It is filed as cell-based, human. The settings on record: 72 hours incubation, read-out: Activity (IC50) MIAPaCa-2.
Description: as §1

Data set [7] in a line: Sensitivity to spontaneous autooxidation (H2O2 level, TMB reagent). It is filed as physicochemical. The settings on record: 30 µM, 30 min and 2 hr in medium alone, with and without Catalase; H2O2 in supernatant. The method, then:
Spontaneous autooxidation of compounds having phenolic groups produce reactive oxygen species like H2O2. The enzyme Catalase breaks down H2O2 to water, We therefore incubated Compound 1 and 7 (30 µM each) for 30 min and 2 hr in medium alone in the presence and absence of Catalase. Level of H2O2 in the supernatant was then measured as reported using 3,5,3′,5′-tetramethylbenzidine (TMB) reagent (Plant Physiology, 2004, 136, 3114-3123). FIG. 1 represents the data of sensitivity of spontaneous autooxidation of Compound 1 and Compound 7.

The subject of data set [8] is U937 cells. Briefly: Morphology and apoptosis/necrosis in U937 cells (Giemsa; annexin V-FITC/PI flow cytometry). Type of data set: cell-based, human. The settings on record: 24 hours. As for the experimental part: U937 cells were treated with standard growth medium alone or with standard growth medium containing hydroxychavicol (30 μM) for 24 hours. Treated and untreated cells were stained with Giemsa and viewed under microscope (magnification ×1000). For measurement of apoptosis/necrosis, cells were left untreated or treated with Compound No. 1 (30 μM) or Compound No.7 (15 μM) for 24 hours. After washing, cells were stained with fluorescein isothiocyanate (FITC)-conjugated annexin V and propidium iodide (PI) and analysed in a flow cytometer (BD LSR, Becton Dickinson).
FIG. 2B indicates flow cytometric determination of apoptosis and necrosis by Compound No.1 (hydroxychavicol) and Compound No.7. Apoptosis and necrosis of U937 cells were induced. Cells were left untreated (extreme left panel), or incubated with Compound No.1 (30 μM) (middle panel) or Compound No.7 (extreme right panel) (15 μM) for 24 hours and processed for flow cytometry after staining with annexin V-FITC and propidium iodide (PI). Viable cells are in the lower left quadrant (stained neither by annexin V nor by PI), early apoptotic cells (stained by annexin V only) are in the lower right quadrant, late-stage apoptotic cells (stained by both annexin V and PI) are in the upper right quadrant and the necrotic cells (stained by PI only) are in the upper left quadrant.
For orientation: In flow cytometry, cells or beads pass a laser one at a time.

Data set [9] relates to normal human PBMC. Nature of the data set: Apoptosis/necrosis of normal human PBMC by flow cytometry. Type of data set: cell-based. The settings on record: 30 μM, 24 hours. The method, then:
FIG. 2C indicates flow cytometric determination of apoptosis and necrosis of normal human PBMC by Compound 1 (30 μM) and Compound 7 (30 μM) after incubation for 24 hours.

The test system of data set [10] is PI3/Akt pathway. Briefly: Activation of PI3/Akt pathway in MIA PaCa 2 cells (Western blot of Akt phosphorylation). Type of data set: cell-based, human. The note with it: 30 μM, 24 hr, reversed by cPTIO 25 μM. The method, then: MIA PaCa 2 cells were pretreated with NAC (5 mM), cPTIO (25 μM), PI3K inhibitor LY294002 (10 μM) for 3 hr followed by treatment with Compound 1 (30 μM) for 24 hr. Whole cell lysates were prepared and the phosphorylation status and protein expression of Akt were analyzed by Western blot. Cells were also treated with medium alone, Compound 1 (30 μM), c-PTIO (nitric oxide scavenger; 25 μM) or compound 1 plus c-PTIO for 24 hr.

Data set [11] has as its system Ehrlich ascites carcinoma (EAC). Briefly: Ehrlich ascites carcinoma (EAC) model in vivo. The note with it: 30 mg/kg body weight intraperitoneally thrice a week for three weeks, Swiss albino mice. An excerpt: The in vitro studies indicate that hydroxychavicol and other compounds of the present invention induce killing of a variety of cancer cell lines including breast cancer cell line MCF-7 (Table 5). The MCF-7 cell line is of epithelial origin. Studies were extended in vivo in mouse model for a tumor of epithelial origin. Ehrlich ascites carcinoma is a tumor of epithelial origin (Cancer Research, 1958, 18, 1167-1185). EAC was established in Swiss albino mice as described (Biochemical and Biophysical Research Communications, 2001, 288, 658-665). Swiss albino mice were injected with EAC (2×10^6 cells/mouse) intraperitoneally. 2 days post-injection of tumor cells, these mice (5 per group) were injected intraperitoneally with Compound No. 1 (hydroxychavicol) (30 mg/kg body weight) or Compound No. 7 (30 mg/kg body weight) thrice a week for three weeks. One week after the last injection, mice were sacrificed, and viable cells from peritoneal cavity were counted microscopically. Vehicle (dimethyl sulphoxide [DMSO], 0.1%) was used as control.

Like-named read-outs stand apart in the source and are kept apart here.

For orientation: IC50 means the midpoint of a concentration-inhibition curve. `C=CCc1ccc(O)c(O)c1` [Compound 1, 4-allyl-benzene-1,2-diol]: the IC50 in data set [1] is 80 µM; in [2] (72 hours incubation, trypan blue exclusion, read-out: Activity (IC50) HL-60), 25 µM; in data set [2] (range over both cell lines HL60 and U937 and over the listed compounds, read-out: IC50 against acute myeloid leukemia cancer cell line (HL60, U937)), 13 to 60 µM; in data set [3] it was 25 µM; in data set [4] it was 30 µM; in data set [4] (Homo sapiens, MOLT-4, 72 h), 15 to 50 µM. The IC50 in [5] is 35 µM; in data set [5] (Homo sapiens, MCF7, 72 h), 25 to 70 µM; in data set [6] it was 35 µM; in data set [6] (Homo sapiens, MIA PaCa-2, 72 h), 30 to 70 µM. In addition, in data set [7], the “Sensitivity to spontaneous autooxidation” value was “undergoes spontaneous autooxidation”. Further, in [8] (30 μM, Giemsa staining, microscopy), the “Morphology of U937 cells (mode of killing)” value was “due to both apoptosis and necrosis”. For the same compound, the “Apoptosis and necrosis of U937 cells by flow cytometry” value in [8] (Compound No.1 30 μM, Compound No.7 15 μM, annexin V-FITC/PI) was “induce apoptosis and necrosis”. The “Apoptosis and necrosis of normal human PBMC by flow cytometry” value in [9] is listed as “remained unaffected”. Besides, the “Effect on activation of PI3/Akt pathway” value in data set [10] was “inhibitis the activation of PI3/Akt pathway”. The “In vivo efficacy against EAC tumor (viable cells from peritoneal cavity)” value in [11] was “effective in vivo in destroying EAC tumor”.
